Earlier results on 2 compounds are cited in PMC10423561, “Effects of the CYP3A inhibitors, voriconazole, itraconazole, and fluconazole on the pharmacokinetics of osimertinib in rats” (PeerJ, 2023).

Read-outs that look alike come from different tables or passages of the source.

One series concerns CYP3A. Conditions: CYP3A probe substrate; inhibitor not stated; ref Uchida, Tanaka & Namiki, 2014; cited from earlier work.
On the set-up of series [1]: method as in Fu et al., 2023. The conditions noted are these: ref Fu et al., 2023, cited from earlier work.

Turning to `Cc1ncc2n1-c1ccc(Cl)cc1C(c1ccccc1F)=NC2` [midazolam], the “increase in AUC0–360 of midazolam” value in the series on CYP3A is reported as 133%.

`C=CC(=O)Nc1cc(Nc2nccc(-c3cn(C4CC4)c4ccccc34)n2)c(OC)cc1N(C)CCN(C)C` [almonertinib]: the “increase in systemic exposure of almonertinib” value in series [1] (with FCZ) is given as 3.4 fold; in series [1] (with VCZ), 2.7 fold.
